Results from ChEMBL document CHEMBL5154721, “Discovery of HDAC6-Selective Inhibitor NN-390 with in Vitro Efficacy in Group 3 Medulloblastoma” (J Med Chem, 2022).
The source made the active and inactive calls. The rule behind the calls is not given here.

Columns and labels:
[1] = Competitive inhibition of N-terminal His-SUMO tagged zebra fish recombinant HDAC6 catalytic domain 2 transfected with pET28b(+) vector in Escherichia coli BL21 (DE3) RILP cells incubated for 10 mins followed by addition of FITC-M344 measured af ter 10 mins by fluorescence polarization assay; set-up: species or system Danio rerio
[2] = in vitro; settings: human, MRC9 cells
[3] = biological target: T1, Histone deacetylase 8 (Homo sapiens, UniProt Q9BY41); assay: Inhibition of full length human recombinant HDAC8 expressed in Sf9 baculovirus system using FAM-labeled acetylated peptide as substrate by measuring fluorescence intensity by EMSA method
T1 sequence (Q9BY41 whole entry): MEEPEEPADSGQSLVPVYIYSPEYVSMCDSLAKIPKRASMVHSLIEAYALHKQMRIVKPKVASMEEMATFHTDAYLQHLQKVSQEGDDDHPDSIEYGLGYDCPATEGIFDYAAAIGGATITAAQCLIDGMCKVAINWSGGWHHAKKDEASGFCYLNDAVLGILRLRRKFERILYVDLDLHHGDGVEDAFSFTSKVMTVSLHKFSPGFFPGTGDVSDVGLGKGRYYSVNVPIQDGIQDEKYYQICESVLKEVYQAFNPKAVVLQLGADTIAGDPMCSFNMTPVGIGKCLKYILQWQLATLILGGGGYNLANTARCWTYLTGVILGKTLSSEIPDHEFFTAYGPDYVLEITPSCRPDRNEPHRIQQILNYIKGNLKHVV

[4] = system: MM1.S; assay: Cytotoxicity against human MM1.S cells assessed as inhibition of cell growth incubated for 72 hrs measured by spectrophotometer analysis; type: functional, cell-based
[5] = system: MV4-11; assay: cells; type: functional, cell-based; settings: Homo sapiens, MV4-11, 72 h
[6] = Stability in human plasma assessed as half life measured upto 60 mins by LC-MS/MS analysis; type: ADME, cell-free
[7] = AUC/D in CD-1 mouse at 20 mg/kg, ip; type: ADME, organism-based; settings: in vivo
[8] = Cytotoxicity against human fetal neuronal stem cells assessed as inhibition of cell growth incubated for 72 hrs measured by spectrophotometer analysis; type: toxicity, cell-based, NSC
[9] = AUCinfinity in CD-1 mouse at 20 mg/kg, ip; type: ADME, organism-based; set-up: time infinity, dose 20 mg/kg, route ip; settings: in vivo
[10] = Therapeutic window, ratio of IC50 for human fetal neuronal stem cells to IC50 for human HD-MB03 cells; type: ADME; settings: fetal neuronal stem cells versus HD-MB03 cells, read-out: Ratio IC50
[11] = Cytotoxicity against human HD-MB03 cells assessed as inhibition of cell growth incubated for 72 hrs measured by spectrophotometer analysis; type: functional, cell-based; settings: HD-MB03, 72 h
[12] = biological target: T2, Histone deacetylase 11 (Homo sapiens, UniProt Q96DB2); assay: Inhibition of full length human recombinant HDAC11 expressed in Sf9 baculovirus system using FAM-labeled acetylated peptide as substrate by measuring fluorescence intensity by EMSA method
T2 sequence (Q96DB2 whole entry): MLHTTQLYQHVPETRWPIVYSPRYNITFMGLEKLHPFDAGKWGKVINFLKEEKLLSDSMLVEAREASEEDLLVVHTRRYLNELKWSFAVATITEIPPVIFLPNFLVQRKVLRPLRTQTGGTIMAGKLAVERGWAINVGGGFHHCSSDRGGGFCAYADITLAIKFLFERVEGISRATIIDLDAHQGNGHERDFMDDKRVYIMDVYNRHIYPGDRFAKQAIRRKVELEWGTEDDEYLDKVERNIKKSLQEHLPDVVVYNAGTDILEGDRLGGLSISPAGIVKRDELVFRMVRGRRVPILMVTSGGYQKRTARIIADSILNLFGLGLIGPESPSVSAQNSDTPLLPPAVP

[13] = biological target: Histone deacetylase 3 (Homo sapiens, UniProt O15379); assay: Inhibition of full length human recombinant HDAC3 expressed in Sf9 baculovirus system using FAM-labeled acetylated peptide as substrate by measuring fluorescence intensity by EMSA method
Sequence of Histone deacetylase 3 (O15379 whole entry): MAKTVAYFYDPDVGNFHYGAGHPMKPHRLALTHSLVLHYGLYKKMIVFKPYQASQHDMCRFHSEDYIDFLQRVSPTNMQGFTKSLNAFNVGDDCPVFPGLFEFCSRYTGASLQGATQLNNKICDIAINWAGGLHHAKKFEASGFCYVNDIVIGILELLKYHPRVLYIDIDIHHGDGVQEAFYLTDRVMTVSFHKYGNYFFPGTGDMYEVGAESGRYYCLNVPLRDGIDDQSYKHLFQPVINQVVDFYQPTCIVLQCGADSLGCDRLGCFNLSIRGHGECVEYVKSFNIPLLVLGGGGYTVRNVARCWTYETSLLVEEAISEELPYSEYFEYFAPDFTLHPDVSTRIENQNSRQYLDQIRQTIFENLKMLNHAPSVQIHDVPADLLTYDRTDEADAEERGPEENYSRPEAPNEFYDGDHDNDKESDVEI

[14] = biological target: T3, Protein deacetylase HDAC6 (Homo sapiens, UniProt Q9UBN7); assay: Inhibition of full length human recombinant HDAC6 expressed in Sf9 baculovirus system using FAM-labeled acetylated peptide as substrate by measuring fluorescence intensity by EMSA method
T3 sequence (Q9UBN7 whole entry): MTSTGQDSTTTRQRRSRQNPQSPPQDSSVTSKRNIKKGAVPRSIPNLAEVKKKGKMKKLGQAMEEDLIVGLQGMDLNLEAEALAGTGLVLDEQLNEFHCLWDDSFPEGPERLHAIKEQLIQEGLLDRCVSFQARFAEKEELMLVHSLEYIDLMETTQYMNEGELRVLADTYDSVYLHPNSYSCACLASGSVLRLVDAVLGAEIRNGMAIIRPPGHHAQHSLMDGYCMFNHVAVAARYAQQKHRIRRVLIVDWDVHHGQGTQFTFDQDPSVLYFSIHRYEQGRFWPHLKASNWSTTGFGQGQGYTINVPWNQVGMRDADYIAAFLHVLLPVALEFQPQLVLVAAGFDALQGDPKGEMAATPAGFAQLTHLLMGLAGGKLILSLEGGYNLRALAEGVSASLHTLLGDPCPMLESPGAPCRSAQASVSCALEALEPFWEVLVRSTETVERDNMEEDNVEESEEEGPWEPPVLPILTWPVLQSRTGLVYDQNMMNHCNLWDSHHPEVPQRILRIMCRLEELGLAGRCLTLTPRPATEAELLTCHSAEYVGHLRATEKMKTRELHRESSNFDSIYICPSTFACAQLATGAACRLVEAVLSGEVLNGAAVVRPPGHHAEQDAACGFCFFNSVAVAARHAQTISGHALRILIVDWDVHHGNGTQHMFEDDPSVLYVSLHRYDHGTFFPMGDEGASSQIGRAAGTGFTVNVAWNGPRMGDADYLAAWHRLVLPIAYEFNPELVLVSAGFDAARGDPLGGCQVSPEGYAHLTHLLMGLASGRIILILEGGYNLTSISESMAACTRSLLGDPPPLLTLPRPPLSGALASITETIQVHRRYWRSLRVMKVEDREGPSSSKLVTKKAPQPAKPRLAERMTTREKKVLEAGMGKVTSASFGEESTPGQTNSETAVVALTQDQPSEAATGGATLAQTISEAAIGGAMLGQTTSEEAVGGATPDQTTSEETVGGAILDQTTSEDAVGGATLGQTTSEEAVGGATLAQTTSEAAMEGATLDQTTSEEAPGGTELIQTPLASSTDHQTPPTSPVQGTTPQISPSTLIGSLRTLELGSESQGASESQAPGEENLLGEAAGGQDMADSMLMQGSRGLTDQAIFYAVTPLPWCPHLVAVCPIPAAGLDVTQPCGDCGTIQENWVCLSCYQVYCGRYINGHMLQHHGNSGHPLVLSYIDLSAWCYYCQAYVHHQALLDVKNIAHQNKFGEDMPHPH

[15] = Cytotoxicity against primary normal human fibroblast cells assessed as inhibition of cell growth incubated for 72 hrs measured by spectrophotometer analysis; type: toxicity, cell-based
[16] = system: MV4-11; assay: Increase in acetylation of histone H3 in human MV4-11 cells at 0.1 uM after 6 hrs by Western blot analysis; type: functional, cell-based
[17] = Cytotoxicity against HUVEC cells assessed as inhibition of cell growth incubated for 72 hrs measured by spectrophotometer analysis; type: toxicity, cell-based; settings: human
[18] = Lipophilicity, logP of the compound; type: physicochemical; settings: octanol/water
[19] = system: MV4-11; assay: Induction of apoptosis in human MV4-11 cells assessed as late apoptotic cells at 0.25 uM after 24 hrs by Annexin V/PI staining based flow cytometric analysis (Rvb=8.13%); type: functional
[20] = system: MV4-11; assay: Induction of apoptosis in human MV4-11 cells assessed as late apoptotic cells at 2 uM after 18 hrs by Annexin V/PI staining based flow cytometric analysis; type: functional
[21] = system: HD-MB03; assay: Increase in acetylation of histone H3 in human HD-MB03 cells at 211 nM for 6 hrs by Western blotting anlaysis; type: functional, cell-based
[22] = system: HD-MB03; assay: […] of self renewal of BTIC-enriched human HD-MB03 cells at 964 nM incubated for 72 hrs by sphere formation assay; type: functional, cell-based

Row | Structure (SMILES) | IC50 [1] [nM] | IC50 at 72 h [2] [nM] | IC50 [3] [nM] | IC50 [4] [nM] | IC50 [5] [nM] | IC50 [12] [nM] | IC50 [13] [nM] | IC50 [14] [nM] | further results
1 | O=C(NO)c1ccc(CN(C2CC2)S(=O)(=O)c2cc(F)c(F)c(F)c2F)cc1 | 173 | > 20000 | > 1000 | 480 | 400 | – | – | – | half-life [6]: 41 min; AUC/dose [7]: 79 ng·h/mL; IC50 at 72 h [8]: 1430 nM; AUC(0-inf) [9]: 1520 ng·h/mL
2 | O=C(/C=C/c1cccc(S(=O)(=O)Nc2ccccc2)c1)NO [BELINOSTAT] | 213 | – | – | – | – | – | – | – | selectivity ratio [10]: 3.7; IC50 [11]: 320 nM
3 | CC(C)CN(Cc1ccc(C(=O)NO)cc1)S(=O)(=O)c1cc(F)c(F)c(F)c1F | 137 | > 50000 | > 1000 | 690 | 520 | > 1000 | > 1000 | 24.6 | –
4 | COCCN(Cc1ccc(C(=O)NO)cc1)S(=O)(=O)c1cc(F)c(F)c(F)c1F | – | > 25000 | > 1000 | 710 | 660 | > 1000 | > 1000 | 27.8 | –
5 | O=C(CCCCCCC(=O)Nc1ccccc1)NO [VORINOSTAT] | – | – | – | 1540 | – | – | – | – | –
6 | CC(C)N(Cc1ccc(C(=O)NO)cc1)S(=O)(=O)c1c(F)c(F)c(F)c(F)c1F | 182 | > 20000 | – | 440 | – | – | – | 4.32 | IC50 at 72 h [15]: 2300 nM; Activity [16]: Active; IC50 at 72 h [17]: 3700 nM; half-life [6]: 22 min
7 | CC(C)N(Cc1ccc(C(=O)NO)cc1)C(=O)c1c(F)c(F)c(F)c(F)c1F | – | > 50000 | – | 12300 | – | – | – | – | –
8 | O=C(NO)c1ccc(CN(C2CCCC2)S(=O)(=O)c2cc(F)c(F)c(F)c2F)cc1 | 356 | > 50000 | > 1000 | 3300 | 2710 | > 1000 | > 1000 | 49.9 | –
9 | COc1cc(C(=O)NO)ccc1CN(C(C)C)S(=O)(=O)c1cc(F)c(F)c(F)c1F | – | > 50000 | 474 | 5750 | 5660 | > 1000 | > 1000 | > 1000 | –
10 | CC(C)N(Cc1ccc(C(=O)NO)cc1)Cc1cc(F)c(F)c(F)c1F | – | > 50000 | > 1000 | 11400 | 7430 | > 1000 | 899 | 16.2 | logP [18]: 4.07
11 | CC(C)N(Cc1ccc(CC(=O)NO)cc1)S(=O)(=O)c1cc(F)c(F)c(F)c1F | – | > 25000 | 84.6 | 2400 | 2500 | > 1000 | > 1000 | 143 | –
12 | O=C(NO)c1ccc2c(c1)CCN(S(=O)(=O)c1cc(F)c(F)c(F)c1F)C2 | – | > 25000 | > 1000 | 1540 | 900 | > 1000 | > 1000 | 50.4 | –
13 | O=C(CCCCCCNC(=O)c1cnc(N(c2ccccc2)c2ccccc2)nc1)NO [RICOLINOSTAT] | 90.2 | > 20000 | – | 840 | – | – | – | – | IC50 [11]: 5220 nM
14 | O=C(CCCCCCNC(=O)c1cnc(N(c2ccccc2)c2ccccc2Cl)nc1)NO [CITARINOSTAT] | 154 | > 30000 | – | – | – | – | – | – | Activity [19]: 8.31%; Activity [20]: 24%; inhibition [16]: Active; Activity [21]: Active; Activity [22]: Active; IC50 [11]: 5800 nM; IC50 at 72 h [8]: 4350 nM
15 | CC(C)N(Cc1ccc(C(=O)NO)cn1)S(=O)(=O)c1cc(F)c(F)c(F)c1F | 1130 | > 50000 | > 1000 | 1600 | 1000 | > 1000 | > 1000 | 121 | –
